Experiments:
[1] = target: T1, UPF1 and UPF2 (Homo sapiens, UniProt Q92900+Q9HAU5); experiment: Effect on binding between UPF1 and UPF2, FLAG-UPF1 immunoprecipitation and western blotting; type: cell-based; conditions: 5 μM for 1 hour; FLAG immunoprecipitation; FIG. 6
T1 construct: expressed in transfected cells
T1 sequence (Q92900 1-1129): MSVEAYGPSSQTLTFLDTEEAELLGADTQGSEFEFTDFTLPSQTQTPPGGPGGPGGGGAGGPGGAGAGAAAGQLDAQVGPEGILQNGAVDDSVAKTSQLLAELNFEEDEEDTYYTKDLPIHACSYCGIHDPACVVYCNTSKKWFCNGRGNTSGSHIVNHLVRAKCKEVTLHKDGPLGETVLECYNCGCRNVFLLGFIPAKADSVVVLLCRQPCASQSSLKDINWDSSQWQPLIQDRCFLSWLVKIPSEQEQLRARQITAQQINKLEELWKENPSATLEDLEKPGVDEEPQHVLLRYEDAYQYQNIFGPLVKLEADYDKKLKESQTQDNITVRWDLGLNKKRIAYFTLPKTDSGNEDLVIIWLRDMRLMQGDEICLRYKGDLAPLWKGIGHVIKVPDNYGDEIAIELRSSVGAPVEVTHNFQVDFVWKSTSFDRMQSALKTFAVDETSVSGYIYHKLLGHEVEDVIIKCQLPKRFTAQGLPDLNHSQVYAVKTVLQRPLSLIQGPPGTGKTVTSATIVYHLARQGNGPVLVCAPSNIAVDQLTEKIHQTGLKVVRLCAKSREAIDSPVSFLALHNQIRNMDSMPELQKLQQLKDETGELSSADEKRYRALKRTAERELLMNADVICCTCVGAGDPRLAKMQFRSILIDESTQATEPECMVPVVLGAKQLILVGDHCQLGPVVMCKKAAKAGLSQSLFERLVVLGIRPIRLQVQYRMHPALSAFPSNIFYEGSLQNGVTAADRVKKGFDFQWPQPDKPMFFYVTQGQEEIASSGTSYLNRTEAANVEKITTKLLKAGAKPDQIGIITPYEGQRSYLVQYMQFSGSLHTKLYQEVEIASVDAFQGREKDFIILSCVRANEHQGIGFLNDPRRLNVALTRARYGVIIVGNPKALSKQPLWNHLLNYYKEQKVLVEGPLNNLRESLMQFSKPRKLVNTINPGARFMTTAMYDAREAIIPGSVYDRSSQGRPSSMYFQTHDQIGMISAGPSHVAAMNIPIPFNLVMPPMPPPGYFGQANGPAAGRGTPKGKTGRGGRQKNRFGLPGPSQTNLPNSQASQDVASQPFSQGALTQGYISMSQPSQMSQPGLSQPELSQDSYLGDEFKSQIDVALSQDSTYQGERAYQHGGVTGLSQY
T1 sequence (Q9HAU5 1-1272): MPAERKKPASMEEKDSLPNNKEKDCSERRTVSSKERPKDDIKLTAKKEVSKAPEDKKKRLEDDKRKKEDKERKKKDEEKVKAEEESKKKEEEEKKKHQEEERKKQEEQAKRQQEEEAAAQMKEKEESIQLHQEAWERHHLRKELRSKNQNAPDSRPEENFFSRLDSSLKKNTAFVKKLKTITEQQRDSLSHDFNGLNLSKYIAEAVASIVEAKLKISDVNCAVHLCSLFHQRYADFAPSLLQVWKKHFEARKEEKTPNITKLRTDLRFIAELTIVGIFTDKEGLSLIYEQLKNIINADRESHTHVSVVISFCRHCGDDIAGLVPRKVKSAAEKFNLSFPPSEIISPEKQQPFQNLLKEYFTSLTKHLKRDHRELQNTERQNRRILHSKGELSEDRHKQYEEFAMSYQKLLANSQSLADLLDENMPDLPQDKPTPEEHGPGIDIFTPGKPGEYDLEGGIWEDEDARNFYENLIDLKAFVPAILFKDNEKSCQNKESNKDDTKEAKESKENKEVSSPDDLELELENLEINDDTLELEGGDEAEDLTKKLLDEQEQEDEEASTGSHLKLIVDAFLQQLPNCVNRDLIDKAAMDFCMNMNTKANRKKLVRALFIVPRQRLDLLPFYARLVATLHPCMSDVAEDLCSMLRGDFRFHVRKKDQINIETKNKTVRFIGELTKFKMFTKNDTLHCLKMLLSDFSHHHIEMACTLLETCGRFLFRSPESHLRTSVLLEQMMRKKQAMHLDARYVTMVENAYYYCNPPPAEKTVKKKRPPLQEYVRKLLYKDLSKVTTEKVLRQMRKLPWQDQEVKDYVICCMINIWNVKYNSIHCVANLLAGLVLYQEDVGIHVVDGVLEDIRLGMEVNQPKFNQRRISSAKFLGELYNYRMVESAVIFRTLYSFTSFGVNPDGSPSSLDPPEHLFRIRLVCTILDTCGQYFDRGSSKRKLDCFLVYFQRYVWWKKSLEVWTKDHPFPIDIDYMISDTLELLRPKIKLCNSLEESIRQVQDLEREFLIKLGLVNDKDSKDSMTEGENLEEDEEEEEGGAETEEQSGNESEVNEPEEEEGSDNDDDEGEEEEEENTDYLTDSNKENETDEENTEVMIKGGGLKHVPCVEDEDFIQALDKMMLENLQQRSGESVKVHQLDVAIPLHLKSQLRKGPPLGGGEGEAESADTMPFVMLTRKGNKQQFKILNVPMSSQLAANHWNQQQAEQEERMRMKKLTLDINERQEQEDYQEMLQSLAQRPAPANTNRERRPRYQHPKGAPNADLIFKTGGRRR
Protocol: In the cell line, DNA expressing FLAG-UPF1 was transiently overexpressed.
After treating the cell line with each compound at 5 μM for 1 hour, a cell extract was obtained. Immunoprecipitation was performed on the cell extract obtained using a FLAG antibody.
Proteins before and after immunoprecipitation were analyzed by western blotting.

[2] = test system: dystrophin protein; experiment: Dystrophin protein in DMD patient-derived cell line, Western blotting; type: cell-based, human; conditions: 5 μM for 12 hours, FIG. 11
[3] = test system: β-6bs mRNA (reporter mRNA); experiment: Tethering of MS2-Upf1, MS2-Upf2, MS2-Upf3 to 3' UTR of reporter mRNA in HeLa cell line, real-time PCR; type: cell-based; conditions: 5 μM for 6 hours or 12 hours; FIGS. 8 and 9
Protocol: An NMD-based search system capable of artificially reducing the amount of reporter mRNA was constructed, after artificially tethering proteins Upf1, Upf2, and Upf3X acting in each step of NMD to 3′ UTR of reporter mRNA (FIG. 7). Using this method, it was attempted to verify which step of NMD the three types of compounds acted on.
After treating the cell line with each compound at 5 μM for 6 hours or 12 hours, a cell extract was obtained. Thereafter, the relative amount of reporter mRNA was measured through real-time PCR.

[4] = test system: UPF1; experiment: Effect on phosphorylation of UPF1, western blotting; type: cell-based; conditions: 5 μM for 12 hours, FIG. 5
Protocol: Phosphorylation of UPFI was known to be one of the most important factors in NMD. In Example 3.1, the effect of the three types of compounds of the present invention on phosphorylation of UPFI was examined. The cells were treated with each compound at 5 μM for 12 hours, and then total proteins were purified. Then, western blotting was performed using each antibody capable of recognizing Upfl or Upfl phosphorylated at a specific site.

[5] = test system: HeLa cell line constitutively expressing the NMD-target mRNA (RLuc-beta-globin PTC); experiment: NMD reporter HeLa cell lines (NMD20, NMD4, NMD5), RLuc/FLuc dual luciferase assay; type: cell-based; conditions: 5 μM for 12 hours, FIG. 4
Protocol: In Example 1, a beta-globin normal gene or the gene including a premature termination codon (PTC) found in genetic diseases was inserted into the downstream of a chemiluminescence gene, Renilla luciferase (RLuc). Normal gene-inserted mRNA was not targeted by NMD, whereas when a gene having PTC was inserted, the mRNA became a NMD target, and as a result, mRNA was quickly broken down and the expression level of RLuc was reduced. […]
First, each of the prepared cell lines was treated with caffeine, which was known as a non-specific NMD inhibitor, to confirm the degree of RLuc activity to FLuc activity. […] Then, the expression levels of RLuc and FLuc proteins were measured by dual luciferase assay.
Additionally, it was attempted to determine whether the prepared HeLa cell line was suitable for performing high-throughput screening (HTS). Experiments were performed by optimizing the conditions such as the number of cells, the amounts of used reagent and buffer, and the like in a 384-well format to be suitable for HTS (FIG. 3), and NMD efficiency was measured using Wortmannin, which was a non-specific NMD inhibitor, as a control substance. […]
The NMD inhibitory effect of Compounds 1 to 3 was confirmed using the HeLa cell line prepared in Example 1. […] Then, the amounts of RNA and protein were quantified respectively through real-time PCR and dual luciferase assay methods. […]

[6] = test system: HeLa cell line constitutively expressing the NMD-target mRNA (RLuc-beta-globin PTC); experiment: NMD reporter HeLa cell line, RLuc mRNA by real-time PCR; type: cell-based; conditions: 5 μM for 12 hours, FIG. 4
Source text: In Example 1, a beta-globin normal gene or the gene including a premature termination codon (PTC) found in genetic diseases was inserted into the downstream of a chemiluminescence gene, Renilla luciferase (RLuc). Normal gene-inserted mRNA was not targeted by NMD, whereas when a gene having PTC was inserted, the mRNA became a NMD target, and as a result, mRNA was quickly broken down and the expression level of RLuc was reduced.
Accordingly, a HeLa cell line constitutively expressing the NMD-target mRNA was prepared, and simultaneously, the cell line was designed to constitutively express a firefly luciferase (FLuc) gene, which was not a target of NMD, and a total of three cell lines NMD20, NMD4, and NMD5 with the same composition were obtained. In order to confirm whether the HeLa cell line prepared above was suitable for measuring NMD efficiency, the following two experiments were performed.
The NMD inhibitory effect of Compounds 1 to 3 was confirmed using the HeLa cell line prepared in Example 1. After treating the cells with Compounds 1 to 3 at 5 μM for 12 hours, respectively, total RNA and protein were purified from the cells, respectively. Then, the amounts of RNA and protein were quantified respectively through real-time PCR and dual luciferase assay methods. The results were illustrated in FIG. 4.

Row | UPF1-UPF2 binding [1] | Compound | amount of dystrophin protein expressed in cells [2] | NMD step targeted (relative amount of reporter mRNA) [3] | phosphorylation of UPF1 [4] | protein translation of RLuc [5] | amount of RLuc mRNA [6]
1 | significantly inhibited | COc1ncc(-c2ccc3nccc(-c4ccnnc4)c3c2)cc1NS(=O)(=O)c1ccc(F)cc1F [Compound 1, 2,4-Difluoro-N-{2-(methyloxy)-5-[4-(4-pyridazinyl)-6-quinolinyl]-3-pyridinyl} benzenesulfonamide] | increased | targeted a UPF1-UPF2 step | did not significantly affect | increased | 
2 | did not significantly affect | Cn1c(=O)n(-c2ccc(C(C)(C)C#N)cc2)c2c3cc(-c4cnc5ccccc5c4)ccc3ncc21 [Compound 2, 2-methyl-2-{4-[3-methyl-2-oxo-8-(quinolin-3-yl)-2,3-dihydro-1H-imidazo[4,5-c]quinolin-1-yl]phenyl} propanenitrile] |  | did not target the UPF1-UPF2 and UPF2-UPF3 steps | significantly inhibited |  | significantly increased
3 | did not significantly affect | COc1cc2ncnc(-n3nc(-c4ccccn4)nc3N)c2cc1OC [Compound 3, 1-(6,7-Dimethoxy-4-quinazolinyl)-3-(2-pyridinyl)-1H-1,2,4-Triazol-5-amine] |  | did not target the UPF1-UPF2 and UPF2-UPF3 steps | did not significantly affect |  | significantly increased
